Reference: PubChem BioAssay (NCI)
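Step 1: Grow cells in 96-well plates. Step 2: Expose to compound for 48 hours at 5 concentrations. Step 3: Interpolate endpoints linearly; if unreached, use highest concentration. The concentration for 50% growth inhibition is given as GI50. TGI: total growth inhibition.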

Assays:
Experiment in all cases: NCI-60 cell line screen, 48 h
[1] = system: MCF7 breast
[2] = system: SF-268 CNS
[3] = system: LOX IMVI melanoma
[4] = system: SK-MEL-2 melanoma
[5] = system: M14 melanoma
[6] = system: SW-620 colon
[7] = system: SK-MEL-28 melanoma
[8] = system: T-47D breast
[9] = system: HS 578T breast
[10] = system: CAKI-1 renal
[11] = system: OVCAR-8 ovarian
[12] = system: EKVX NSCLC
[13] = system: TK-10 renal
[14] = system: MALME-3M melanoma
[15] = system: UACC-257 melanoma
[16] = system: SNB-75 CNS
[17] = system: RXF 393 renal
[18] = system: HCT-15 colon
[19] = system: K-562 leukemia
[20] = system: NCI-H460 lung
[21] = system: HOP-62 NSCLC
[22] = system: IGROV1 ovarian
[23] = system: SN12C renal
[24] = system: UO-31 renal
[25] = system: SF-539 CNS
[26] = system: ACHN renal
[27] = system: A498 renal
[28] = system: COLO 205 colon
[29] = system: SF-295 CNS
[30] = system: KM12 colon
[31] = system: HCT-116 colon
[32] = system: HL-60(TB) leukemia
[33] = system: NCI/ADR-RES ovarian
[34] = system: OVCAR-3 ovarian
[35] = system: A549 NSCLC
[36] = system: HCC-2998 colon
[37] = system: MOLT-4 leukemia
[38] = system: OVCAR-5 ovarian
[39] = system: RPMI-8226 leukemia
[40] = system: NCI-H23 lung
[41] = system: MDA-MB-231 breast
[42] = system: DU-145 prostate
[43] = system: SK-MEL-5 melanoma
[44] = system: HT29 colon
[45] = system: CCRF-CEM leukemia
[46] = system: HOP-92 NSCLC
[47] = system: U251 CNS
[48] = system: 786-0 renal
[49] = system: OVCAR-4 ovarian
[50] = system: SNB-19 CNS
[51] = system: UACC-62 melanoma
[52] = system: PC-3 prostate
[53] = system: NCI-H226 lung
[54] = system: MDA-MB-435
[55] = system: NCI-H522 lung
[56] = system: SR leukemia
[57] = system: SK-OV-3 ovarian

SMILES: C/C(CC(=O)NNc1ccc([N+](=O)[O-])cc1)=N\Nc1ccc([N+](=O)[O-])cc1
- GI50 [1]: 12.9 µM
- TGI [1]: > 100 µM
- GI50 [2]: 13.4 µM
- TGI [2]: > 100 µM
- GI50 [3]: 2720 nM
- TGI [3]: > 100 µM
- GI50 [4]: 11 µM
- TGI [4]: 87.5 µM
- GI50 [5]: 2110 nM
- TGI [5]: 18.3 µM
- GI50 [6]: 3840 nM
- TGI [6]: > 100 µM
- GI50 [7]: 31.5 µM
- TGI [7]: > 100 µM
- GI50 [8]: 3.71 µM
- TGI [8]: > 100 µM
- GI50 [9]: 17.4 µM
- TGI [9]: > 100 µM
- GI50 [10]: 1.93 µM
- TGI [10]: 32.2 µM
- GI50 [11]: 14.2 µM
- TGI [11]: 38.1 µM
- GI50 [12]: 22.4 µM
- TGI [12]: > 100 µM
- GI50 [13]: 13.4 µM
- TGI [13]: 35 µM
- GI50 [14]: 10.6 µM
- TGI [14]: 66.5 µM
- GI50 [15]: 39.6 µM
- TGI [15]: > 100 µM
- GI50 [16]: 22.1 µM
- TGI [16]: 93.5 µM
- GI50 [17]: 17.7 µM
- TGI [17]: 46.5 µM
- GI50 [18]: 19.7 µM
- TGI [18]: > 100 µM
- GI50 [19]: 622 nM
- TGI [19]: > 100 µM
- GI50 [20]: 4140 nM
- TGI [20]: > 100 µM
- GI50 [21]: 14.2 µM
- TGI [21]: 38 µM
- GI50 [22]: 14.1 µM
- TGI [22]: > 100 µM
- GI50 [23]: 17.8 µM
- TGI [23]: > 100 µM
- GI50 [24]: 1880 nM
- TGI [24]: > 100 µM
- GI50 [25]: 5.97 µM
- TGI [25]: > 100 µM
- GI50 [26]: 5.45 µM
- TGI [26]: > 100 µM
- GI50 [27]: 7.84 µM
- TGI [27]: 47.2 µM
- GI50 [28]: 3800 nM
- TGI [28]: > 100000 nM
- GI50 [29]: 2960 nM
- TGI [29]: 18.4 µM
- GI50 [30]: 2120 nM
- TGI [30]: > 100 µM
- GI50 [31]: 6.04 µM
- TGI [31]: 28.3 µM
- GI50 [32]: 2480 nM
- TGI [32]: > 100 µM
- GI50 [33]: 15.1 µM
- TGI [33]: > 100 µM
- GI50 [34]: 8.03 µM
- TGI [34]: 31.1 µM
- GI50 [35]: 5.42 µM
- TGI [35]: > 100 µM
- GI50 [36]: 6.4 µM
- TGI [36]: > 100 µM
- GI50 [37]: 6.45 µM
- TGI [37]: > 100 µM
- GI50 [38]: 99.4 µM
- TGI [38]: > 100 µM
- GI50 [39]: 7.91 µM
- TGI [39]: > 100 µM
- GI50 [40]: 15 µM
- TGI [40]: 39.3 µM
- GI50 [41]: 2120 nM
- TGI [41]: 19.7 µM
- GI50 [42]: 17.4 µM
- TGI [42]: 89.9 µM
- GI50 [43]: 2130 nM
- TGI [43]: 5.42 µM
- GI50 [44]: 7.66 µM
- TGI [44]: > 100 µM
- GI50 [45]: 4.76 µM
- TGI [45]: > 100 µM
- GI50 [46]: 7.94 µM
- TGI [46]: 28.3 µM
- GI50 [47]: 10.5 µM
- TGI [47]: 33.2 µM
- GI50 [48]: 10.4 µM
- TGI [48]: > 100 µM
- GI50 [49]: 5.92 µM
- TGI [49]: > 100 µM
- GI50 [50]: 29.7 µM
- TGI [50]: > 100 µM
- GI50 [51]: 1550 nM
- TGI [51]: 19 µM
- GI50 [52]: 4.26 µM
- TGI [52]: > 100 µM
- GI50 [53]: 17.9 µM
- TGI [53]: > 100 µM
- GI50 [54]: 4.56 µM
- TGI [54]: > 100 µM
- GI50 [55]: 776 nM
- TGI [55]: 7.92 µM

SMILES: CN(C)CCCN(c1nc(C(Cl)(Cl)Cl)ns1)c1nc(C(Cl)(Cl)Cl)ns1
- GI50 [1]: 1.9 µM
- TGI [1]: 3.62 µM
- GI50 [2]: 3.12 µM
- TGI [2]: 11.4 µM
- GI50 [3]: 1580 nM
- TGI [3]: 3.01 µM
- GI50 [4]: 1.84 µM
- TGI [4]: 3.5 µM
- GI50 [5]: 1890 nM
- TGI [5]: 3.63 µM
- GI50 [6]: 1670 nM
- TGI [6]: 3.18 µM
- GI50 [7]: 1.9 µM
- TGI [7]: 3.5 µM
- GI50 [8]: 2.98 µM
- TGI [8]: 10.5 µM
- GI50 [9]: 1.72 µM
- TGI [9]: 4.46 µM
- GI50 [10]: 4.82 µM
- TGI [10]: 18.5 µM
- GI50 [11]: 1.77 µM
- TGI [11]: 3.52 µM
- GI50 [12]: 3.32 µM
- TGI [12]: 13 µM
- GI50 [13]: 1.93 µM
- TGI [13]: 3.58 µM
- GI50 [14]: 2.18 µM
- TGI [14]: 5.01 µM
- GI50 [15]: 1.8 µM
- TGI [15]: 3.65 µM
- GI50 [56]: 1490 nM
- TGI [56]: 3.53 µM
- GI50 [16]: 2.17 µM
- TGI [16]: 7.89 µM
- GI50 [17]: 1.81 µM
- TGI [17]: 3.21 µM
- GI50 [18]: 1.88 µM
- TGI [18]: 4.08 µM
- GI50 [19]: 1790 nM
- TGI [19]: 3.93 µM
- GI50 [20]: 1810 nM
- TGI [20]: 3.56 µM
- GI50 [21]: 1.64 µM
- TGI [21]: 3.07 µM
- GI50 [22]: 2.27 µM
- TGI [22]: 4.92 µM
- GI50 [23]: 3.42 µM
- TGI [23]: 11.6 µM
- GI50 [24]: 1470 nM
- TGI [24]: 3.08 µM
- GI50 [25]: 1.91 µM
- TGI [25]: 3.8 µM
- GI50 [26]: 1.77 µM
- TGI [26]: 3.53 µM
- GI50 [27]: 1.92 µM
- TGI [27]: 4.89 µM
- GI50 [28]: 1470 nM
- TGI [28]: 2850 nM
- GI50 [29]: 1700 nM
- TGI [29]: 3.6 µM
- GI50 [30]: 1800 nM
- TGI [30]: 3.44 µM
- GI50 [31]: 1.66 µM
- TGI [31]: 3.34 µM
- GI50 [32]: 1520 nM
- TGI [32]: 3.43 µM
- GI50 [33]: 1.89 µM
- TGI [33]: 4.41 µM
- GI50 [34]: 2.01 µM
- TGI [34]: 4.09 µM
- GI50 [35]: 1.63 µM
- TGI [35]: 3.78 µM
- GI50 [36]: 1.69 µM
- TGI [36]: 3.31 µM
- GI50 [57]: 1880 nM
- TGI [57]: 4 µM
- GI50 [37]: 1.93 µM
- TGI [37]: 4.23 µM
- GI50 [38]: 1.82 µM
- TGI [38]: 3.8 µM
- GI50 [39]: 2.19 µM
- TGI [39]: 5.35 µM
- GI50 [40]: 2.04 µM
- TGI [40]: 5.55 µM
- GI50 [41]: 1190 nM
- TGI [41]: 2.6 µM
- GI50 [42]: 2.75 µM
- TGI [42]: 6.79 µM
- GI50 [43]: 1600 nM
- TGI [43]: 2.95 µM
- GI50 [44]: 1.69 µM
- TGI [44]: 3.37 µM
- GI50 [45]: 2.45 µM
- TGI [45]: 8.03 µM
- GI50 [46]: 1.64 µM
- TGI [46]: 5.33 µM
- GI50 [47]: 1.76 µM
- TGI [47]: 3.22 µM
- GI50 [48]: 1.72 µM
- TGI [48]: 3.3 µM
- GI50 [49]: 2.21 µM
- TGI [49]: 5.58 µM
- GI50 [50]: 2.53 µM
- TGI [50]: 7.3 µM
- GI50 [51]: 2100 nM
- TGI [51]: 4.91 µM
- GI50 [52]: 1.94 µM
- TGI [52]: 5.14 µM
- GI50 [53]: 1.72 µM
- TGI [53]: 3.42 µM
- GI50 [54]: 2.05 µM
- TGI [54]: 4.54 µM
- GI50 [55]: 1710 nM
- TGI [55]: 3.45 µM
